Test results taken from patent US7388006B2, “Non-steroidal progesting” (Bayer Schering Pharma AG, priority 2002, dated 2008).

Legend:
[1] = tested on: ovulation in adult female rats; assay: In vivo test on progestogenic activity - ovulation inhibition (rat); conditions: for Ovulation inhibition, result in words / Ovulation inhibition, factor compared to R5020: rat; for Ovulation inhibition, factor compared to R5020: potency relative to R5020
Method: Before the treatment is started, two […] cycles of female rats (weight: 190 to 210 g) were monitored. Only animals having a regular 4 day-cycle are used for the subsequent test. Starting in the metoestrus, the test compound is administered for 4 days (day 1 to 4) and the cycle is controlled thereafter.
For subcutaneous application, the test compounds are dissolved in benzyl benzoate/castor oil (1+9 v/v) and the daily dose is administered in a volume of 1 ml/kg body weight.
For peroral application, the test compounds are suspended in a carrier liquid (85 mg Myrj^R in 100 ml 0.9% w/v NaCl solution) and the daily dose is administered in a volume of 2 ml/kg body weight.
On day 4, after the application of the test compound, those animals having estrus or metoestrus are ovariectomized under ether anesthesia on one side. Preparations of the tubes are prepared and they are investigated for ova by means of microscope. On day 5 all animals (intact and partly ovariectomized) are killed with carbon dioxide, the tubes are preserved and analyzed in the same way. It is then determined, as a percentage, in how many animals ovulation was inhibited. […] Accordingly, this compound is to be regarded as having strong, progestational activity.

[2] = tested on: rat mammary epithelium; assay: MIB-5 immunohistochemistry, proliferation of the mammary epithelium; assay type: in vivo; conditions: FIG. 2
Method: In order to determine the effects of test progestins according to the present invention, in particular compound ((+)-1), in mammary gland differentiation and proliferation, premature female rats (Wistar Han, SPF) are ovariectomized at the age of 21 days, 4 to 6 days before treatment start. The animals are treated for 6 days with standard estrogen (estrone (E1), 70 μg/kg) and the test progestin ((+)-1) (application volume: 0.1 ml/50 g body weight; vehicle: benzylbenzoate/castor oil (1+4 v/v); subcutaneous). Control groups are e.g.: vehicle, estrone without progestin, estradiol together with a known progestin, e.g. R5020 (promegestone). After the 6-day treatment the animals are killed with carbon dioxide.
For the whole mount staining, animals are shaved in the left abdominal inguinal mammary region, which is cut from the body together with the skin. For the histological/immunohistochemical analyses the right abdominal inguinal mammary gland is cut from the body together with the connective-tissue adhered thereto and fixed in 3.7% formalin in PBS (phosphate buffer saline; without Ca^2+/Mg^2+).
For a more detailed evaluation of the proliferation of the mammary epithelium, cells are stained with the proliferation marker MIB-5 as follows (cf. FIG. 2): Mammary glands are fixed in 4% formaldehyde/PBS for 24 h and embedded in paraffm. 4 μm sections are spread on slides, deparaffinized, treated with microwaves for 10 min. in citrate buffer pH 6.0 and rinsed with PBS. Slides are then blocked with 3% H2O2/methanol for 15 min., Blockingkit (Vektor, no. SP-2001) for 10 min. and rat serum (Sigma, no. S-7648) diluted 1:2 in PBS for 30 min to reduce nonspecific staining and rinsed in PBS. Slides are incubated for 1 hour with monoclonal antibody MIB-5 (Dianova, no. Dia-5055), which is specific for the rat Ki-67 antigen (1:200 diluted in PBS/0.2% BSA). […]
In order to characterize a test compound, the percentage of MIB-5 stained mammary epithelium cells is determined. […]

[3] = tested on: PR-A; assay type: cell-based
Method: The method for screening for PR isoform-specific progestins according to the present invention is carried out with first and second SK-N-MC cells stably transfected with a plasmid expressing the HPR-A (first cells) or the hPR-B (second cells) and the LUC reporter gene linked to the hormonally responsive MTV promoter.
The cells are cultured in Minimum Essential Medium with Earl's Salts (S-MEM, without L-glutamine; Gibco BRL, no. 21090-022), supplemented with 10% fetal calf serum (FCS), penicillin 100U/streptomycin 100 μg/ml (Biochrom, no. A2213), L-glutamine 4 mmol/l (Gibco BRL, no. 25030-024), sodium pyruvate 1 mmol/l (Biochrom, no. L0473) and 1×non-essential amino acids (Biochrom, no. K0293) at a temperature of 37° C. and in an atmosphere of 5% carbon dioxide.
For the transcription assay, the cells are seeded onto 96-well dishes (2×10^4 cells/dish) and cultured in a medium as described above, with the exception that the FCS is replaced by a 3% charcoal stripped FCS. 48 hours later, cells are contacted with prediluted test compounds. For determination of agonistic activity, cells are cultured in the presence of 6 increasing concentrations (10^−6 to 10^−11 mol/l) of test progestins. As a positive control for reporter gene induction cells are treated with 10^−6 to 10^−11 mol/l R5020 (promegestone). As a negative control for reporter gene induction, cells are cultured in 1% ethanol.
After incubation with test progestins for 24 hours, the medium is removed and cells are lysed with 20 μl of lysis buffer (Luciferase Assay System E 153A; Promega) and under agitation of the plate for 101 min. After addition of 30 μl of luciferase reagent (Luciferase Assay System E 151A+152A; Promega) within 30 seconds per plate, the activity of the luciferase reporter gene product is determined in the cell lysates by means of a Microlite ML 3000 microtiter plate luminometer (Dynatech) in cycle mode.
Evaluation of the response gives the efficacy [%], and evaluation of the EC50s values gives the potency [nM]. Calculation of the agonistic activity is conducted as follows:
The LUC activity [%] for the measured data points is calculated as follows:
[formula] wherein CI=100% stimulation (R5020, 10^−7 mol/l) and CO=0% stimulation (ethanol, 1%).
Thus, the efficacy [%] is calculated according to: […]
The potency [nM], i.e. the EC50, is determined graphically.

O=C1OCc2cc(NC(=O)C(O)(CC3(c4cc(C(F)(F)F)ccc4F)CC3)C(F)(F)F)ccc21 (single isomer, unassigned; (+)) [((+)-1), (+)-5-{2-hydroxy-3-[1-(2-fluoro-5-trifluoromethylphenyl)-cyclopropyl]-2-trifluoromethyl-propionylamino}-phthalide]
inhibition at 0.01 mg/kg ([1]; Rattus norvegicus, dose 10 μg/kg, days 1 to 4, female rats): 0%
inhibition at 0.03 mg/kg ([1]; Rattus norvegicus, dose 30 μg/kg, days 1 to 4, female rats): 14%
inhibition at 0.1 mg/kg ([1]; Rattus norvegicus, dose 100 μg/kg, days 1 to 4, female rats): 100%
Ovulation inhibition, result in words [1]: at least as potent as the standard progestin
Ovulation inhibition, factor compared to R5020 ([1]; listed as ((+)-l)): 1 to 2
Ovulation inhibition, factor compared to R5020 ([1]; listed as ((+)−1)): 1-2
Ovulation inhibition, result in words ([1]; listed as ((+)-l)): efficiently inhibited ovulation
MIB-5 positive cells ([2]; 1 mg/kg/d): ~12%
MIB-5 positive cells, dose dependence in words ([2]; increasing concentrations): dose-dependent decrease of MIB-5 positive cells
Δ agonism efficacies (A-B) ([3]; PR-A efficacy minus PR-B efficacy): 64
PR isoform selectivity in words ([3]; PR-A versus PR-B): selective PR-A agonist
